The text below walks through data of ChEMBL document CHEMBL4420076, “Amylin and calcitonin receptor agonist” (2017).

Numbered stars: 1 amine (or outer) side, 2 acyl side, 3 side chain; on linkers, the order of the positions; unused ones are H or OH. Side chains are listed from the residue outwards. Peptide text beside a SMILES is read from it. * marks the point of attachment. C20 diacid = O=C(O)CCCCCCCCCCCCCCCCCCC(=O)*; γGlu = O=C(O)[C@H](CCC(=O)[*:2])N[*:1] Where only a bound is given, the exact number is not on record here.

A short description of data set [1]: Solubility in 100 mM bistrispropane buffer at pH 8.0 incubated for 18 hrs by UPLC analysis. The data set is classed as physicochemical.
Data set [2] in a line: Solubility in 100 mM glycylglycine buffer at pH 4.0 incubated for 18 hrs by UPLC analysis. The data set is classed as physicochemical.
In data set [3] the target is T1, Calcitonin receptor (Homo sapiens, UniProt P30988).
T1 sequence (P30988 whole entry): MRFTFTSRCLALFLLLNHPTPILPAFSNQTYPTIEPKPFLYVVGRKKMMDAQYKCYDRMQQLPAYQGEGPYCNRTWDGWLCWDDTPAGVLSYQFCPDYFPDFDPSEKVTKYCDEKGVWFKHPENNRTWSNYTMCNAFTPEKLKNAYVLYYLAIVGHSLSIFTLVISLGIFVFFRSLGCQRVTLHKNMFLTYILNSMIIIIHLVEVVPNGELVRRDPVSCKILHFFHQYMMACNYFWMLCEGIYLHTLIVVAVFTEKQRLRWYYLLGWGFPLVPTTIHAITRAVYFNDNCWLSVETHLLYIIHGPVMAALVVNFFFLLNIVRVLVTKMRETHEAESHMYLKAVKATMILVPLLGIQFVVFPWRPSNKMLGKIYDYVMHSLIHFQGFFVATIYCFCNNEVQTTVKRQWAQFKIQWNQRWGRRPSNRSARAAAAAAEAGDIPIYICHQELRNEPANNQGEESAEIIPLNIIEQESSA
Briefly: Agonist activity at human calcitonin receptor expressed in BHK570 cells assessed as increase in intracellular cAMP concentration incubated for 3 hrs in presence of 10% FBS by CRE luciferase reporter gene assay. Type of data set: functional, cell-based. For orientation: A reporter such as luciferase makes a cellular process visible.

The nature of data set [4]: Solubility in 100 mM glycylglycine buffer at pH 3.0 incubated for 18 hrs by UPLC analysis. The data set is classed as physicochemical.
In data set [5] the target is T1, Calcitonin receptor. The data set can be described thus: Agonist activity at human calcitonin receptor expressed in BHK570 cells assessed as increase in intracellular cAMP concentration incubated for 3 hrs in absence of albumin by CRE luciferase reporter gene assay. The data set is classed as functional, cell-based.
The nature of data set [6]: Solubility in 100 mM bistrispropane buffer at pH 6.0 incubated for 18 hrs by UPLC analysis. The data set is classed as physicochemical.
Data set [7] is described as follows: Solubility in 100 mM bistrispropane buffer at pH 7.5 incubated for 18 hrs by UPLC analysis. Type of data set: physicochemical.
Data set [8] has as its target T1, Calcitonin receptor. The data set can be described thus: Displacement of [125I]-labeled human calcitonin from human calcitonin receptor expressed in BHK tkts13 cell membranes incubated for 1 hr by scintillation proximity assay. On the technique in general: Displacement assays read how much labelled ligand stays bound in the presence of the test substance.
Data set [9] in a line: Solubility in 100 mM bistrispropane buffer at pH 7.0 incubated for 18 hrs by UPLC analysis. The data set is classed as physicochemical.
The target of data set [10] is T2, Amylin receptor AMY3; CALCR/RAMP3 (Homo sapiens, UniProt O60896+P30988).
T2 sequence (P30988 whole entry): T1 sequence (P30988 whole entry)
T2 sequence (O60896 whole entry): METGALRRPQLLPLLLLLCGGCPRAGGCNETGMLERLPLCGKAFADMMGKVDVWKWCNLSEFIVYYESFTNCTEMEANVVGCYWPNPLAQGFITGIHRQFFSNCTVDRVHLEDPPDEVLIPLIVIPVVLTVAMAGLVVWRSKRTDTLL
The data set can be described thus: Agonist activity at human amylin receptor expressed in BHK570 cells co-expressing RAMP3 assessed as increase in intracellular cAMP concentration incubated for 3 hrs in absence of albumin by CRE luciferase reporter gene assay. The data set is classed as functional, cell-based.

The nature of data set [11]: Solubility in 100 mM bistrispropane buffer at pH 6.5 incubated for 18 hrs by UPLC analysis. The data set is classed as physicochemical.
For data set [12], the target named is T2, Amylin receptor AMY3; CALCR/RAMP3. Briefly: Agonist activity at human amylin receptor expressed in BHK570 cells co-expressing RAMP3 assessed as increase in intracellular cAMP concentration incubated for 3 hrs in presence of 10% FBS by CRE luciferase reporter gene assay. Type of data set: functional, cell-based.
Data set [13] addresses T3, Amylin receptor AMY3; CALCR/RAMP3 (Rattus norvegicus, UniProt P32214+Q9JJ73).
T3 sequence (P32214 whole entry): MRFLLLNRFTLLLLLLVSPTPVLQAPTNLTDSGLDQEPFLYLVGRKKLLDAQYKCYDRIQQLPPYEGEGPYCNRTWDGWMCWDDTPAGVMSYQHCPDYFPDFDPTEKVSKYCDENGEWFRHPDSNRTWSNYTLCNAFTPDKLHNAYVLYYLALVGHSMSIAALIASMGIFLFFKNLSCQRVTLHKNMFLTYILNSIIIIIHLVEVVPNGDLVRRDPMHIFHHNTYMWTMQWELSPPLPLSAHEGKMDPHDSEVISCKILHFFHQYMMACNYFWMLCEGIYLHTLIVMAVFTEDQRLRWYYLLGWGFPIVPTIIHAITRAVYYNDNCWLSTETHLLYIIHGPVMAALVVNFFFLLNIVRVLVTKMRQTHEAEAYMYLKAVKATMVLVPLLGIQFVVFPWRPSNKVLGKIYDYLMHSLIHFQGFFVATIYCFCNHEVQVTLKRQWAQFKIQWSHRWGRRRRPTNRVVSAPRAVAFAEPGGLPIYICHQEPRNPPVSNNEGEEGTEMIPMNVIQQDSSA
T3 sequence (Q9JJ73 whole entry): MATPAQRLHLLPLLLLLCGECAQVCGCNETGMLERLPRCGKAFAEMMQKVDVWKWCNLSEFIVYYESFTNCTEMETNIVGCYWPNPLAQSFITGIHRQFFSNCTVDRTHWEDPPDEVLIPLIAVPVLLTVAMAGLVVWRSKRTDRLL
The data set can be described thus: Displacement of [125I]-labeled rat amylin from rat amylin receptor expressed in BHK tkts13 cell membranes co-expressing RAMP3 incubated for 120 mins by scintillation proximity assay.

A short description of data set [14]: Solubility in 100 mM glycylglycine buffer at pH 5.0 incubated for 18 hrs by UPLC analysis. Type of data set: physicochemical.
Data set [15] has as its target T2, Amylin receptor AMY3; CALCR/RAMP3. The data set can be described thus: Displacement of [125I]-labeled rat amylin from human amylin receptor expressed in BHK tkts13 whole cells co-expressing RAMP3 incubated for 60 mins by scintillation proximity assay. Type of data set: cell-based.

As a reminder, the solubility is the concentration that dissolves in the medium under given conditions. In general, EC50 refers to the midpoint of the concentration-response curve. Usually IC50 stands for the concentration that gives 50% inhibition. `CC(=O)N[C@@H](C)C(=O)N[C@@H](CO)C(=O)N[C@@H](CCC(=O)O)C(=O)N[C@@H](CC(C)C)C(=O)N[C@@H](CO)C(=O)N[C@H](C(=O)N[C@@H](C)C(=O)N[C@@H](C)C(=O)N[C@@H](CC(C)C)C(=O)NCC(=O)N[C@@H](CCCNC(=N)N)C(=O)N[C@@H](CC(C)C)C(=O)N[C@@H](CO)C(=O)N[C@@H](C)C(=O)N[C@@H](CCC(=O)O)C(=O)N[C@@H](CC(C)C)C(=O)N[C@@H](Cc1cnc[nH]1)C(=O)N[C@@H](CCCCNC(=O)CC[C@H](NC(=O)CCCCCCCCCCCCCCCCCCC(=O)O)C(=O)O)C(=O)N[C@@H](CC(C)C)C(=O)N[C@@H](C)C(=O)N[C@H](C(=O)N[C@@H](CC(C)C)C(=O)N1CCC[C@H]1C(=O)N[C@@H](CCCNC(=N)N)C(=O)N[C@H](C(=O)N[C@@H](CCC(=O)O)C(=O)N[C@H](C(=O)NCC(=O)N[C@@H](CO)C(=O)NCC(=O)N[C@@H](CO)C(=O)N1CCC[C@H]1C(N)=O)[C@@H](C)O)[C@@H](C)O)[C@@H](C)O)[C@@H](C)O` (Ac-ASELSTAALGRLSAELHK([γGlu-C20 diacid])LATLPRTETGSGSP-NH2): the solubility at 18 h in data set [1], in data set [2], in data set [4], in [6], in data set [7] and in data set [9] was at least 200 µM throughout. In addition, the solubility at 18 h in data set [11] and in data set [14] was at least 200 µM in each case. Besides, the EC50 is 0.022 nM on Calcitonin receptor [3], 0.019 nM on Calcitonin receptor [5], 0.032 nM in [10] and 0.047 nM in data set [12]. Also, the figures for the IC50 (at Calcitonin receptor [8]; in data set [13]) were 0.077 nM and 0.684 nM, respectively.

For the compound `CC(C)C[C@H](NC(=O)[C@H](CO)NC(=O)[C@H](C)NC(=O)[C@@H](NC(=O)[C@H](CO)NC(=O)[C@H](CC(C)C)NC(=O)[C@H](CCC(=O)O)NC(=O)[C@H](CO)NC(=O)[C@H](C)NC(=O)CC[C@H](NC(=O)CCCCCCCCCCCCCCCCCCC(=O)O)C(=O)O)[C@@H](C)O)C(=O)NCC(=O)N[C@@H](CCCNC(=N)N)C(=O)N[C@@H](CC(C)C)C(=O)N[C@@H](CO)C(=O)N[C@@H](C)C(=O)N[C@@H](CCC(=O)O)C(=O)N[C@@H](CC(C)C)C(=O)N[C@@H](Cc1cnc[nH]1)C(=O)N[C@@H](CCC(=O)O)C(=O)N[C@@H](CC(C)C)C(=O)N[C@@H](CO)C(=O)N[C@H](C(=O)N[C@@H](Cc1ccc(O)cc1)C(=O)N1CCC[C@H]1C(=O)N[C@@H](CCCNC(=N)N)C(=O)N[C@H](C(=O)N[C@@H](CCC(=O)O)C(=O)N[C@H](C(=O)NCC(=O)N[C@@H](CO)C(=O)NCC(=O)N[C@@H](CO)C(=O)N[C@@H](Cc1ccc(O)cc1)C(N)=O)[C@@H](C)O)[C@@H](C)O)[C@@H](C)O` ({C20 diacid-γGlu}-ASELSTASLGRLSAELHELSTYPRTETGSGSY-NH2), the solubility at 18 h in data set [1], in data set [4], in data set [7] and in data set [9] was at least 200 µM throughout. Further, the 50% effective concentration (EC50) on Calcitonin receptor [3] is 0.108 nM; on Calcitonin receptor [5], 0.016 nM; in data set [10], 0.017 nM; in [12] it was 0.143 nM. In addition, the IC50 was 0.1 nM at Calcitonin receptor [8], 0.046 nM in data set [13] and 3.17 nM in [15].

As to `CC(C)C[C@H](NC(=O)CNC(=O)[C@H](CO)NC(=O)[C@H](C)NC(=O)CC[C@H](NC(=O)CCCCCCCCCCCCCCCCCCC(=O)O)C(=O)O)C(=O)N[C@@H](CO)C(=O)N[C@H](C(=O)N[C@@H](C)C(=O)N[C@H](C(=O)N[C@@H](CC(C)C)C(=O)NCC(=O)N[C@@H](CCCNC(=N)N)C(=O)N[C@@H](CC(C)C)C(=O)N[C@@H](CO)C(=O)N[C@@H](CCC(N)=O)C(=O)N[C@@H](CCC(=O)O)C(=O)N[C@@H](CC(C)C)C(=O)N[C@@H](Cc1cnc[nH]1)C(=O)N[C@@H](CCC(=O)O)C(=O)N[C@@H](CC(C)C)C(=O)N[C@@H](CCC(N)=O)C(=O)N[C@H](C(=O)N[C@@H](Cc1ccc(O)cc1)C(=O)N1CCC[C@H]1C(=O)N1CCC[C@H]1C(=O)N[C@H](C(=O)N[C@@H](CCC(=O)O)C(=O)N[C@H](C(=O)NCC(=O)N[C@@H](CO)C(=O)NCC(=O)N[C@H](C(=O)N[C@@H](Cc1ccc(O)cc1)C(N)=O)[C@@H](C)O)[C@@H](C)O)[C@@H](C)O)[C@@H](C)O)[C@@H](C)O)[C@@H](C)O` ({C20 diacid-γGlu}-ASGLSTATLGRLSQELHELQTYPPTETGSGTY-NH2), the solubility at 18 h in data set [1], in data set [4], in data set [6], in data set [7], in [9] and in data set [11] was at least 200 µM throughout. The solubility at 18 h in data set [14] was at least 200 µM. Further, the figures for the EC50 (on Calcitonin receptor [3]; at Calcitonin receptor [5]; in data set [10]) were 0.077 nM, 0.019 nM and 0.023 nM, respectively. The IC50 at Calcitonin receptor [8] is 0.053 nM; in data set [13] it was 0.098 nM; in data set [15], 0.116 nM.

For the compound `CC(C)C[C@H](NC(=O)[C@H](CCCNC(=N)N)NC(=O)CNC(=O)[C@H](CC(C)C)NC(=O)[C@@H](NC(=O)[C@H](C)NC(=O)[C@@H](NC(=O)[C@H](CO)NC(=O)[C@H](CC(C)C)NC(=O)[C@H](CCC(N)=O)NC(=O)[C@H](CO)NC(=O)[C@H](C)NC(=O)CC[C@H](NC(=O)CCCCCCCCCCCCCCCCCCC(=O)O)C(=O)O)[C@@H](C)O)C(C)C)C(=O)N[C@@H](CO)C(=O)N[C@@H](CCC(N)=O)C(=O)N[C@@H](CCCNC(=N)N)C(=O)N[C@@H](CC(C)C)C(=O)N[C@@H](Cc1cnc[nH]1)C(=O)N[C@@H](CCCNC(=N)N)C(=O)N[C@@H](CC(C)C)C(=O)N[C@@H](CCC(N)=O)C(=O)N[C@H](C(=O)N[C@@H](Cc1ccc(O)cc1)C(=O)N1CCC[C@H]1C(=O)N[C@@H](CCCNC(=N)N)C(=O)N[C@H](C(=O)N[C@@H](CCC(N)=O)C(=O)N[C@H](C(=O)NCC(=O)N[C@@H](CO)C(=O)N[C@@H](CCC(N)=O)C(=O)N[C@H](C(=O)N[C@@H](Cc1ccc(O)cc1)C(N)=O)[C@@H](C)O)[C@@H](C)O)[C@@H](C)O)[C@@H](C)O` ({C20 diacid-γGlu}-ASQLSTAVLGRLSQRLHRLQTYPRTQTGSQTY-NH2), the 50% effective concentration (EC50) was 0.05 nM at Calcitonin receptor [3], 0.015 nM at Calcitonin receptor [5], 0.016 nM in data set [10] and 0.037 nM in data set [12]. Moreover, the 50% inhibitory concentration (IC50) is 0.131 nM at Calcitonin receptor [8], 1.16 nM in [13] and 3.7 nM in data set [15].
